Reference: a melting point compilation (Tetko et al.; mined from patent text by program, amines drawn as free bases though some values may be those of a salt)

Row | Structure (SMILES) | melting point [°C]
1 | CC(=O)C(=O)C(=O)OC(C)(C)C | 62 to 66
2 | COc1ccc(-c2nc3cc(Cl)c(Cl)cc3n2C(=O)OCc2ccccc2)cc1N | 150 to 160
3 | O=C(O)c1ccc(NC(=O)c2ccc(-c3ccccc3)cc2)cc1 | > 320
4 | CC(C)NC(C)Cc1ccc(O)cn1 (configuration not stated) | 135 to 138
5 | CC(Cc1c[nH]c2ccc(N)cc12)[N+](=O)[O-] (configuration not stated) | 120 to 122
6 | O=S1(=O)CCN(c2nc(Cl)nc3c(Cl)ncnc23)CC1 | 270 to 273
7 | CCCCCCC1CCC2C(CCC3CC(=O)CCC32)C1 (configuration not stated) | 49
8 | Cn1ncc2[nH]c3ccc(-c4cccc(O)c4)cc3c(=O)c21 | > 250
9 | CC(C)(S)CN1CCC(CCO)CC1 | 42
10 | Cc1cc(C(=O)CBr)c(C)o1 | 56 to 58
11 | CCCCc1c(C)c2ccc(OCCCN3CCN(Cc4ccc(Cl)cc4)CC3)cc2[nH]c1=O | 148 to 149
12 | COc1ccccc1C1C(C#N)=C(C(C)C)Nc2n[nH]cc21 (configuration not stated) | > 250
13 | CC(C)c1c(Cl)nc(OCc2ccccc2)nc1OCc1ccccc1 | 77 to 78
14 | COC(=O)Nc1nc2cc(C(N)c3ccccc3)ccc2[nH]1 (configuration not stated) | > 232
15 | CCC(=O)C1(Nc2ccccc2)CCN(CCc2cccs2)CC1 | 127
16 | O=C1C(=O)N(C(c2ccccc2)(c2ccccc2)c2ccccc2)CCN1Cc1cc(=O)c(OCc2ccccc2)cn1Cc1ccccc1 | 165 to 168
17 | CCS(=O)(=O)CCC(=O)NNC(=O)N1Cc2ccccc2Oc2ccc(NS(C)(=O)=O)cc21 | 211 to 212
18 | CCCn1nc2c(N)nc3ccccc3c2c1CCNC(=O)CC | 184 to 185
19 | Cc1nnc2n1-c1ccccc1C(c1ccc(Cl)cc1)=NN2Cc1ccc(NC=O)cc1 | 215 to 216
20 | NNC(=O)c1ccccc1-c1ccc(N)cc1 | 135 to 137
21 | COc1cccc2c1C13CCNC(C2)C1(O)CCC(=O)C3 (configuration not stated) | 137 to 139
22 | CCOC(=O)CCc1nc(-c2ccccc2)cc2ccccc12 | 60
23 | CCCCCCCCCCCCCCCCCCCCCCCCNc1ccc(C(=O)C(F)(F)F)cc1 | 89 to 90
24 | O=c1c(CCCc2ccncc2)cc2cccnc2n1-c1ccc2nonc2c1 | 192 to 194
25 | CC(C)=CCn1cc(C)nc1[N+](=O)[O-] | 53 to 54
26 | Cc1cccc2c(=O)[nH]cc(Br)c12 | 201 to 210

Row | Structure (SMILES) | melting point [°C]
27 | CC1CC(c2ccccc2)(N(C)C)CCC1=O (configuration not stated) | 50
28 | O=C1c2ccccc2C(=O)c2sc(-c3ccsc3)nc21 | 258
29 | CC(O)c1ccc(Cc2ccccc2CO)cc1 (configuration not stated) | 96 to 97
30 | O=C(O)CCC(=O)OCCc1ccccc1 | 60 to 62
31 | CCCc1c(Br)sc2[nH]c(=O)c(=O)[nH]c12 | 269 to 271
32 | CCn1c(=O)c2c(nc(/C=C/c3ccc(OCC(=O)O)cc3)n2C)n(CC)c1=O | 268 to 269
33 | CCOc1cc(C(C#N)N2C(=O)c3cccc(NC(C)=O)c3C2=O)ccc1OC (configuration not stated) | 118 to 120
34 | CCOC(=O)CN(CC(=O)OCC)Cc1ccc2cc(N)c3ccc(CN(CC(=O)OCC)CC(=O)OCC)nc3c2n1 | 137 to 139
35 | CNC(=O)C(C(=O)NC(Cc1ccccc1)C(O)CNCC(O)C(Cc1ccccc1)NC(=O)OC(C)(C)C)C(C)(C)C (configuration not stated) | 117 to 120
36 | CCCc1ccc(O)c2c(=O)cc(-c3nnn[nH]3)oc12 | 242 to 245
37 | CCN(C/C=C/C#CC(C)(C)C)Cc1cccc(N2C(=O)c3ccccc3C2=O)c1 | 65 to 66
38 | CCOC(=O)c1cn(-c2ccccn2)cn1 | 118 to 119
39 | Oc1ccc(CSSCc2ccc(O)cc2)cc1 | 171
40 | CC(C)(O)CCCCCc1ccc(CCc2cc(O)cc(O)c2)cc1 | 128 to 130
41 | CCOC(=O)[C@H](CSCc1ccccc1)NC(=O)C(C)(C)NC(=O)[C@@H](SC(C)=O)C(C)C | 69 to 71
42 | CN1C(=O)N(c2c(Cl)cccc2Cl)Cc2cnc(NCc3ccccc3)nc21 | 195 to 198
43 | NS(=O)(=O)c1cccc(-c2cccc(-c3nc(-c4ccc(Cl)s4)cc(C(F)(F)F)n3)c2)c1 | 226
44 | CC(=O)OCc1cc2c3ccccc3nc(=O)n2[nH]1 | 186 to 187
45 | CCCS(=O)(=O)CC(=O)NNC(=O)N1Cc2ccccc2Oc2ccc(Cl)cc21 | 173 to 175
46 | O=C1OC2(CCNCC2)CN1Cc1ccccc1 | 69 to 71
47 | CCCC(Cl)(Cl)C(NC(=O)c1ccc(Cl)cc1)Nc1c(Nc2cccnc2)c(=O)c1=O (configuration not stated) | 258 to 259
48 | O=C(Nc1c[nH]nc1C(=O)NCC(O)Cc1ccccc1)c1ccccn1 (configuration not stated) | 180 to 181
49 | O=c1cc(N2CCOCC2)oc2c(-c3ccc(O)c(-c4ccccc4)c3)cccc12 | 243 to 247
50 | CC(N(O)C(N)=O)C1(OCc2nc3ccccc3s2)C=CC(c2ccccc2)=CC1 (configuration not stated) | 190 to 191
51 | O=C(NO)c1ccc(CNC(=O)c2[nH]c(-c3ccccc3)cc2-c2ccc(F)cc2)cc1 | 215 to 216

Further lines, results first:

Row | melting point [°C] | Structure (SMILES)
52 | 155 to 157 | Nc1sc2c(c1C(=O)c1ccc(Cl)cc1)CCN(Cc1ccccc1)C2
53 | 305 to 308 | O=C1NC(=O)c2c1cc1ccc3c(c1c2C1CCCCC1)OCO3
54 | 72 to 73 | CCNS(=O)(=O)c1ccc(C2=C(c3ccccc3)C(=O)C(C)(C)O2)cc1Cl
55 | 92 to 94 | COC(=O)C(C)Oc1ccc(Oc2ncc(Cl)cc2N)cc1 (configuration not stated)
56 | 120 to 121 | COc1ccc(N2CCN(c3c(C)c(C)c4c(c3C)C(OCc3ccccn3)C(C)(C)O4)CC2)cc1 (configuration not stated)
57 | 191 to 192 | CC(C)c1nc(CO)[nH]c1Sc1cc(Cl)cc(Cl)c1
58 | 130 to 136 | COc1ccc(CCNC(=O)c2ccc3n2Cc2ccccc2N(C(=O)c2ccc(-c4ccccc4C)c(C)c2)C3)cc1OC
59 | 249 to 252 | CCS(=O)(=O)Nc1cc(-c2nc[nH]c(=O)c2Cl)c(F)cc1C#N
60 | 148 to 149 | CC(C)(C)OC(=O)N1CCC2(CC1)C(=O)N(CC(=O)O)CN2CC1CCCCC1
61 | 114 to 115 | COC(=O)c1cc(OCc2cn(-c3ccc(C(F)(F)F)cn3)nc2C(C)C)nn1C
62 | 183 to 184 | Cc1c(C(=O)Cl)ccc(S(C)(=O)=O)c1C1=NOCC1
63 | 124 to 125 | CCCCCS(=O)(=O)NC(=O)/C=C/c1ccc(OCCCOCC2CC2)cc1Oc1ncc(C(F)(F)F)cc1Cl
64 | 120 to 144 | CN1CCOc2ccc(S(=O)(=O)n3c(Cc4ccc(C(=O)O)s4)cc4cc(C(F)(F)F)ccc43)cc21
65 | 105 to 107 | COC(=O)COc1ccc(C(=O)CBr)cc1OC
66 | 94 to 96 | CC(C)c1nc(CCOC2=CCCCCCCCC2)n(C)c1Sc1cc(Cl)cc(Cl)c1
67 | 74 | CCN(C)C(=O)c1cc(-c2ccccc2)oc1-c1ccc(OC)c(OC)c1
68 | 112 to 113 | CCN(CC)C(=O)n1cc(C(F)F)c(S(=O)(=O)c2cc(Cl)cc(Cl)c2)n1
69 | 84 to 86 | CCOC(=O)c1nc(NC)sc1C(=O)CC
70 | 182 to 184 | COCC1CN(c2ccc(C3CCC(OC(=O)c4ccccc4C4=NCCO4)CC3)cc2)C(=O)O1 (racemic)
71 | 258 to 260 | COC(=O)c1c[nH]c(=O)c2ccccc12
72 | 88 to 89 | FC(F)(F)c1cc(Cl)c(-n2cc(I)c(-c3ccccc3)n2)c(Cl)c1
73 | 56.7 | C[C@H]1CCCC(C)(C)[C@@H]1C(=O)c1cc(F)c(F)c(F)c1
74 | 136 | CON=C(C(C)=NN=Cc1ccccc1C(=NOC)C1=NOCCO1)c1ccccc1
75 | 63 to 69 | COc1cc(COc2cccc(O)c2C)cc(OC)c1
76 | 224 to 225 | O=C(Cn1c(-c2ccc(Cl)cc2)nc2cccnc21)N1CCCC1
77 | 214 | CC(=O)N1c2ccccc2Sc2c1ccc(O)c2Cl

Row | melting point [°C] | Structure (SMILES)
78 | 173 | O=C(N[C@H]1CC[C@H](CCN2CCC(c3cccc4c3CCO4)CC2)CC1)C(F)(F)F
79 | 117 to 119 | COc1ccc(/C(=C/C=C/C(=O)Oc2ccc([N+](=O)[O-])cc2)C2CCCCC2)cc1
80 | 228 to 230 | COC(=O)CC(=O)Nc1ccc(C2=NNC(=O)CC2C)cc1 (configuration not stated)
81 | 49 to 51 | O=C(c1ccccc1)c1ccncc1Cl
82 | 142 to 143 | NC(=O)[C@@H]1CCCN1C(=O)CNC(=O)OCc1ccccc1
83 | 120 to 121 | OC(c1ccccc1F)c1cc(C(F)(F)F)nc2c(C(F)(F)F)cccc12 (configuration not stated)
84 | 257 to 258 | O=C(c1cccc2nc3n(c12)CCCN3c1ccc(Cl)cc1Cl)N1CC(O)C1
85 | 256 to 258 | Nc1n[nH]c2nc(C3CC3)cc(-c3ccc(Cl)c(Cl)c3)c12
86 | 129 to 130 | OC(CN1CCOCC1)c1cc(C(F)(F)F)nc2c(C(F)(F)F)cccc12 (configuration not stated)
87 | 108 to 110 | C[C@@H](Nc1ncnc2cc(OC3CCC3)c([N+](=O)[O-])cc12)c1ccccc1
88 | 201 to 203 | Cn1cc(C(=O)O)cc1Cl
89 | 121 to 124 | O=C(Nc1ccc(C(F)(F)F)cc1)NC1CCN(C(=O)Cc2c[nH]cn2)CC1
90 | 120 | COC(=O)c1ccc(OC)c(NC(=N)c2ccc(F)c(Cl)c2)c1
91 | 87.6 | FC(F)(F)C1(c2ccccc2)CCNCC1
92 | 127 | CC1=C(C(=O)O)CCc2ccccc21
93 | 175 | Nc1nc2cc(N)c(OC(F)(F)F)cc2s1
94 | 192 to 193 | CCCc1cc(=O)n(-c2cc(C(=O)OC(C)C)c(Cl)cc2F)c(=O)[nH]1
95 | 149 to 150 | CC(C)N(C(=O)c1cccc2c1CCc1cc(F)ccc1S2)C(C)C
96 | 222 to 224 | N#Cc1cc2sccc2nc1Cl
97 | 82 to 84 | CC(=NOCCOc1ccc(CC2SC(=O)NC2=O)cc1)c1cccc(Cl)c1 (configuration not stated)
98 | 212 | O=C1c2cccc(NC(=S)Nc3ncccn3)c2C2CCCCN12 (configuration not stated)
99 | 46 to 48 | CC(C)c1ccc2cc(OCCF)ccc2c1
100 | 110 to 111 | COc1ccc(C2NC(=O)C2OC(C)=O)cc1 (configuration not stated)
101 | 232 to 234 | O=C(c1ccc2scnc(=O)c2c1)N1CCCC1
102 | 107 to 108 | COC(=O)[C@@]12CO[C@@H](C(C)(C)C)N1C(=O)[C@@H](C)C2
